In brackets after ≈: the same amount, converted by molar mass. Like-named read-outs stand apart in the source and are kept apart here.
Columns and labels:
[1] = test system: Klebsiella pneumoniae 22 #3038; assay: Minimum inhibitory concentration, serial dilution on nutrient agar; format: cell-based
[2] = test system: Providencia Pv 16; assay: as above; format: cell-based; conditions: PV16, 37° C., 18 hours incubation
[3] = Acute toxicity by intravenous injection in mice; conditions: mouse, in vivo
[4] = test system: Mycobacterium smegmatis ATCC 607; assay: Minimum inhibitory concentration, serial dilution on nutrient agar; format: cell-based; conditions: Mycolicibacterium smegmatis, ATCC607; nutrient agar, 37° C., 18 hours incubation; read-out: MIC
[5] = test system: Escherichia coli K-12 ML 1629; assay: as above; format: cell-based; conditions: K12ML1629, nutrient agar, 37° C., 18 hours incubation, read-out: MIC
[6] = test system: Pseudomonas aeruginosa No. 12; assay: as above; format: cell-based
[7] = test system: Serratia 4; assay: as above; format: cell-based; conditions: 37° C., 18 hours incubation
[8] = test system: Escherichia coli W677; assay: as above; format: cell-based
[9] = test system: Pseudomonas aeruginosa H11; assay: as above; format: cell-based; conditions: H11, nutrient agar, 37° C., 18 hours incubation, read-out: MIC
[10] = test system: Bacillus cereus ATCC 10702; assay: as above; format: cell-based; conditions: ATCC10702, nutrient agar, 37° C., 18 hours incubation, read-out: MIC
[11] = test system: Proteus rettgeri GN466; assay: as above; format: cell-based; conditions: Providencia rettgeri, GN466; nutrient agar, 37° C., 18 hours incubation; read-out: MIC
[12] = test system: Escherichia coli JR255; assay: as above; format: cell-based; conditions: JR255, nutrient agar, 37° C., 18 hours incubation, read-out: MIC
[13] = test system: Klebsiella pneumoniae PCI 602; assay: as above; format: cell-based; conditions: PCI602, nutrient agar, 37° C., 18 hours incubation, read-out: MIC
[14] = test system: Pseudomonas aeruginosa H9; assay: as above; format: cell-based
[15] = test system: Micrococcus flavus FDA 16; assay: as above; format: cell-based
[16] = test system: Bacillus subtilis PCI 219; assay: as above; format: cell-based; conditions: PCI219, 37° C., 18 hours incubation
[17] = test system: Salmonella typhi T-63; assay: as above; format: cell-based; conditions: Salmonella enterica, 18 h
[18] = test system: Escherichia coli K-12 C 600R/35; assay: as above; format: cell-based; conditions: K12C600R/35, 37° C., 18 hours incubation
From the text: (§1) The minimum inhibitory concentration (mcg/ml) of 1-N-[(S)-4-amino-2-hydroxybutyryl]-5,3',4'-trideoxykanamycin B (abbreviated as AHB-trideoxyKMB), 1-N-[(RS)-3-amino-2-hydroxypropionyl]-5,3',4'-trideoxykanamycin B (abbreviated as AHP-trideoxy-KMB) and 1-N-[(S)-4-amino-2-hydroxybutyryl]-5,3',4',6"-tetradeoxykanamycin B (abbreviated as AHB-tetradeoxyKMB) of the formula (II) according to this invention as well as of the new compound 5,3',4',6"-tetradeoxykanamycin B (abbreviated as tetradeoxyKMB) of the formula (III) according to this invention against various microorganisms were determined according to serial dilution method on a nutrient agar medium at 37° C., the estimation being made after 18 hours incubation. For comparison purpose, the minimum inhibitory concentrations of habekacin were also determined in the same manner as stated above.
(§2) The minimum inhibitory concentrations (mcg/ml) of 1-N-[(S)-4-amino-2-hydroxybutyryl]-5,3',4'-trideoxy-6'-N-methylkanamycin B (abbreviated as AHB-trideoxyMKMB), 1-N-[(RS)-3-amino-2-hydroxypropionyl]-5,3',4'-trideoxy-6'-N-methylkanamycin B (abbreviated as AHP-trideoxyMKMB) and 1-N-[(S)-5-amino-2-hydroxyvaleryl]-5,3',4'-trideoxy-6'-N-methylkanamycin B (abbreviated as AHV-trideoxyMKMB) of the formula (IV) according to this invention as well as of the new compound 5,3',4'-trideoxy-6'-N-methylkanamycin B (abbreviated as trideoxyMKMB) of the formula (V) according to this invention against various microorganisms were determined according to serial dilution method on a nutrient agar medium at 37° C., the estimation being made after 18 hours incubation. For comparison purpose, the minimum inhibitory concentrations of 1-N-[(S)-4-amino-2-hydroxybutyryl]-3',4'-dideoxykanamycin B (ie. habekacin) were also determined in the same manner as stated above.

[19] = test system: Escherichia coli K-12 ML 1630; assay: as above; format: cell-based; conditions: K12ML1630, 37° C., 18 hours incubation
From the text: as §1, §2

[20] = test system: Escherichia coli K-12 J5R 11-2; assay: as above; format: cell-based; conditions: K12J5R112, 37° C., 18 hours incubation
From the text: as §1, §2

[21] = test system: Shigella flexneri 4b JS11811; assay: as above; format: cell-based; conditions: 4BJS11811, 37° C., 18 hours incubation
From the text: as §1, §2

[22] = test system: Shigella sonnei JS11746; assay: as above; format: cell-based; conditions: 37° C., 18 hours incubation
From the text: as §1, §2

[23] = test system: Sarcina lutea PCI 1001; assay: as above; format: cell-based; conditions: Micrococcus luteus, PCI1001; nutrient agar, 37° C., 18 hours incubation; read-out: MIC
[24] = test system: Shigella dysenteriae JS 11910; assay: as above; format: cell-based; conditions: JS11910, 18 h
[25] = test system: Pseudomonas aeruginosa K-Ps102; assay: as above; format: cell-based; conditions: KPS102, 18 h
[26] = test system: Staphylococcus epidermidis 109; assay: as above; format: cell-based; conditions: Staphylococcus epidermidis, 109; nutrient agar, 37° C., 18 hours incubation; read-out: MIC
[27] = test system: Staphylococcus aureus Smith; assay: as above; format: cell-based; conditions: 37° C., 18 hours incubation
[28] = test system: Salmonella enteritidis 1891; assay: as above; format: cell-based; conditions: Salmonella enterica, nutrient agar, 37° C., 18 hours incubation, read-out: MIC
[29] = test system: Bacillus anthracis; assay: microbe, parasite or virus in culture; format: cell-based; conditions: 18 h
[30] = test system: Escherichia coli K-12 LA 290 R64; assay: Minimum inhibitory concentration, serial dilution on nutrient agar; format: cell-based; conditions: K12LA290R64, 18 h

Structure (SMILES) | MIC [2] | LD50 [3] | MIC [4] | MIC [5] | MIC [7] | MIC [9] | MIC [10] | MIC [11] | MIC [12] | MIC [13] | MIC [16] | MIC [17] | MIC [18] | MIC [19] | MIC [20] | MIC [21] | MIC [22] | MIC [23] | MIC [24] | MIC [25] | further results
C[C@H]1O[C@H](O[C@@H]2C[C@H](O[C@H]3O[C@H](CN)CC[C@H]3N)[C@@H](N)C[C@H]2N)[C@H](O)[C@@H](N)[C@@H]1O [TetradeoxyKMB, 5,3',4',6"-tetradeoxykanamycin B] | > 100 µg/mL | 25 to 50 mg/kg | 0.78 µg/mL (≈ 1.86 µM) | 6.25 µg/mL (≈ 14.9 µM) | 50 µg/mL (≈ 119 µM) | 25 µg/mL (≈ 59.6 µM) | 3.13 µg/mL (≈ 7.46 µM) | 25 µg/mL (≈ 59.6 µM) | 25 µg/mL (≈ 59.6 µM) | 3.13 µg/mL (≈ 7.46 µM) | < 0.2 µg/mL | 12.5 µg/mL (≈ 29.8 µM) | 6.25 µg/mL (≈ 14.9 µM) | 12.5 µg/mL (≈ 29.8 µM) | 6.25 µg/mL (≈ 14.9 µM) | 25 µg/mL (≈ 59.6 µM) | 12.5 µg/mL (≈ 29.8 µM) | 50 µg/mL (≈ 119 µM) | 12.5 µg/mL (≈ 29.8 µM) | 12.5 µg/mL (≈ 29.8 µM) | MIC ([1]; nutrient agar, 37° C., 18 hours incubation, read-out: MIC): 100 µg/mL (≈ 238 µM); MIC ([6]; NO.12, nutrient agar, 37° C., 18 hours incubation, read-out: MIC): 25 µg/mL (≈ 59.6 µM); MIC ([8]; W677, nutrient agar, 37° C., 18 hours incubation, read-out: MIC): 6.25 µg/mL (≈ 14.9 µM); MIC ([14]; H9, nutrient agar, 37° C., 18 hours incubation, read-out: MIC): 100 µg/mL (≈ 238 µM); MIC ([15]; FDA16, nutrient agar, 37° C., 18 hours incubation, read-out: MIC): 50 µg/mL (≈ 119 µM); MIC [26]: 6.25 µg/mL (≈ 14.9 µM); MIC [27]: < 0.2 µg/mL; MIC [28]: 25 µg/mL (≈ 59.6 µM); MIC [29]: 0.39 µg/mL (≈ 0.93 µM); MIC [30]: 100 µg/mL (≈ 238 µM)
CNC[C@@H]1CC[C@@H](N)[C@@H](O[C@H]2C[C@@H](O[C@H]3O[C@H](CO)[C@@H](O)[C@H](N)[C@H]3O)[C@H](NC(=O)[C@@H](O)CCN)C[C@@H]2N)O1 [AHB-trideoxyMKMB, 1-N-[(S)-4-amino-2-hydroxybutyryl]-5,3',4'-trideoxy-6'-N-methylkanamycin B] | 6.25 µg/mL (≈ 11.4 µM) | 50 to 100 mg/kg | < 0.2 µg/mL | 0.78 µg/mL (≈ 1.42 µM) | 6.25 µg/mL (≈ 11.4 µM) | 12.5 µg/mL (≈ 22.7 µM) | 0.39 µg/mL (≈ 0.708 µM) | 6.25 µg/mL (≈ 11.4 µM) | 0.78 µg/mL (≈ 1.42 µM) | 0.78 µg/mL (≈ 1.42 µM) | < 0.2 µg/mL | 1.56 µg/mL (≈ 2.83 µM) | 1.56 µg/mL (≈ 2.83 µM) | 1.56 µg/mL (≈ 2.83 µM) | 1.56 µg/mL (≈ 2.83 µM) | 0.78 µg/mL (≈ 1.42 µM) | 3.13 µg/mL (≈ 5.68 µM) | 0.39 µg/mL (≈ 0.708 µM) | 1.56 µg/mL (≈ 2.83 µM) | 1.56 µg/mL (≈ 2.83 µM) | MIC ([1]; 18 h): 1.56 µg/mL (≈ 2.83 µM); MIC ([6]; NO.12, 18 h): 1.56 µg/mL (≈ 2.83 µM); MIC ([8]; W677, 18 h): 1.56 µg/mL (≈ 2.83 µM); MIC ([14]; H9, 18 h): 1.56 µg/mL (≈ 2.83 µM); MIC ([15]; FDA16, 18 h): 1.56 µg/mL (≈ 2.83 µM); MIC [26]: < 0.2 µg/mL; MIC [27]: < 0.2 µg/mL; MIC [28]: 0.78 µg/mL (≈ 1.42 µM); MIC [29]: < 0.2 µg/mL; MIC [30]: 1.56 µg/mL (≈ 2.83 µM)

Reference: patent US4410516A, “1-N(αHydroxy-ω-aminoalkanoyl) derivatives of 5,3',4'-trideoxy- or 5,3', 4'-trideoxy-6'-N- methyl- or 5, 3', 4',6"-tetradeoxykannamyci B and production thereof” (Zaidan Hojin Biseibutsu Kagaku Kenkyu Kai, priority 1981, dated 1983)
